Experimental data published in paper PMC7073229, “Novel Quinoline Compounds Active in Cancer Cells through Coupled DNA Methyltransferase Inhibition and Degradation” (Cancers, 2020).

Legend:
human DNMT1 (hDNMT1) = target: T1, human DNMT1 (hDNMT1) (Homo sapiens, UniProt P26358); experiment: DNMT1 assay ([methyl-3H]SAM, Flashplate); assay type: biochemical; conditions: mean of at least two independent experiments; read-out: Enzyme Inhibition (EC50 ± SD) hDNMT1
T1 construct: His; made in house
Protocol: His-DNMT1 (182 kDa, human) was cloned, expressed, and purified as described by Lee et al.. The DNMT1 assay was performed according to Gros et al.. […] The reaction was incubated 2 h at 37 °C, then 8 µL of the solution are transferred into a streptavidin 96-well scintillant coated Flashplate containing 190 µL of 20 mM SAH in 50 mM Tris–HCl (pH 7.4). The Flashplate is agitated for 1 h at room temperature and washed. The plate is read with TopCount (PerkinElmer). In this assay, the negative and positive controls were defined as wells without enzyme and wells with only DMSO, respectively.

SIK (h) = SIK (h) (Homo sapiens, UniProt P57059); experiment: Kinase inhibitory assay (panel); assay type: biochemical; conditions: read-out: % inhibition at 10 µM
Protocol: (§1) Experimental procedure of kinase inhibitory assays
(§2) The test compound, reference compound or water (control) were mixed with the enzyme (for the exact amount see table below) in the appropriate buffer. Thereafter, the reaction was initiated by adding the required amount of the appropriate substrate and of ATP, and the mixture is incubated at room temperature (variable reaction time, see table below). For control basal measurements, the enzyme was omitted from the reaction mixture. Following incubation, the reaction was stopped by adding 13 mM
(§3) EDTA. After 5 min, the proper antibody labelled with europium chelate was added. After 60 more min, the fluorescence transfer was measured at λex=337 nm, λem=620 nm and λem=665 nm using a microplate reader (Envision, Perkin Elmer). The enzyme activity was determined by d ividing the signal measured at 665 nm by that measured at 620 nm (ratio). The results are expressed as a percent inhibition of the control enzyme activity. The standard inhibitory reference compound is staurosporine when not differently indicated (see tabl e below), which has been tested in each experiment at several concentrations to obtain an inhibition curve from which its IC 50 value is calculated.
(§4) • Assay volume and format: 10 µL in 384-well plate
(§5) • Compound addition: [100x] solution in solvent then [5x] solution in water • Maximum tolerable DMSO concentration: 1%

NEK2 (h) = NEK2 (h) (Homo sapiens, UniProt P51955); experiment: Kinase inhibitory assay (panel); assay type: biochemical; conditions: read-out: % inhibition at 10 µM
Protocol: as §1, §2, §3, §4, §5

CHK2 (h) = CHK2 (h) (Homo sapiens, UniProt O96017); experiment: Kinase inhibitory assay (panel); assay type: biochemical; conditions: read-out: % inhibition at 10 µM
Protocol: as §1, §2, §3, §4, §5

CHK1 (h) = CHK1 (h) (Homo sapiens, UniProt O14757); experiment: Kinase inhibitory assay (panel); assay type: biochemical; conditions: read-out: % inhibition at 10 µM
Protocol: as §1, §2, §3, §4, §5

PAK4 (h) = PAK4 (h) (Homo sapiens, UniProt O96013); experiment: Kinase inhibitory assay (panel); assay type: biochemical; conditions: read-out: % inhibition at 10 µM
Protocol: as §1, §2, §3, §4, §5

ERK2 (h) (P42mapk) = ERK2 (h) (P42mapk) (Homo sapiens, UniProt P28482); experiment: Kinase inhibitory assay (panel); assay type: biochemical; conditions: read-out: % inhibition at 10 µM
Protocol: as §1, §2, §3, §4, §5

JAK3 (h) = JAK3 (h) (Homo sapiens, UniProt P52333); experiment: Kinase inhibitory assay (panel); assay type: biochemical; conditions: read-out: % inhibition at 10 µM
Protocol: as §1, §2, §3, §4, §5

PKCbeta 2 (h) = PKCbeta 2 (h) (Homo sapiens, UniProt P05771); experiment: Kinase inhibitory assay (panel); assay type: biochemical; conditions: read-out: % inhibition at 10 µM
Chain of PKCbeta 2 (h) (P05771 1-673 isoform P05771-2): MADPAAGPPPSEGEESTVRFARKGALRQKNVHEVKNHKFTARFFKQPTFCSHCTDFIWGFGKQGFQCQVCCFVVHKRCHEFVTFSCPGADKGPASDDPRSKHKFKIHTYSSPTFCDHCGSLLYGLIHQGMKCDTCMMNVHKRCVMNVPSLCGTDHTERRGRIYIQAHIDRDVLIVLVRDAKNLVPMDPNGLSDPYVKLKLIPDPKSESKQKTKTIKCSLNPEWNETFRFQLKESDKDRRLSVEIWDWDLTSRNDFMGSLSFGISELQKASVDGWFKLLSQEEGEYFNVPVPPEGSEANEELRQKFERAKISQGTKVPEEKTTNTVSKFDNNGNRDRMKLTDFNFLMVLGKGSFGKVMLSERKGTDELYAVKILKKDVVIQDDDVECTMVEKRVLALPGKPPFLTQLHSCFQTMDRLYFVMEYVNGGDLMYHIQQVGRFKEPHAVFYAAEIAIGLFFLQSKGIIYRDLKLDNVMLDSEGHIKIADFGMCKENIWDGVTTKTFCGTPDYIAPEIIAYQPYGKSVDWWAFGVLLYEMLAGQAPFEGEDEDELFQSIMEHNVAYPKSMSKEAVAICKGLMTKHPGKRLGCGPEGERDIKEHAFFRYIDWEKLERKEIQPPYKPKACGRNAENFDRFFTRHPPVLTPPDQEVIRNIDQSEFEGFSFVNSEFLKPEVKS
Protocol: as §1, §2, §3, §4, §5

RAF-1 kinase (h) = RAF-1 kinase (h) (Homo sapiens, UniProt P04049); experiment: Kinase inhibitory assay (panel); assay type: biochemical; conditions: read-out: % inhibition at 10 µM
Chain of RAF-1 kinase (h) (P04049 whole entry): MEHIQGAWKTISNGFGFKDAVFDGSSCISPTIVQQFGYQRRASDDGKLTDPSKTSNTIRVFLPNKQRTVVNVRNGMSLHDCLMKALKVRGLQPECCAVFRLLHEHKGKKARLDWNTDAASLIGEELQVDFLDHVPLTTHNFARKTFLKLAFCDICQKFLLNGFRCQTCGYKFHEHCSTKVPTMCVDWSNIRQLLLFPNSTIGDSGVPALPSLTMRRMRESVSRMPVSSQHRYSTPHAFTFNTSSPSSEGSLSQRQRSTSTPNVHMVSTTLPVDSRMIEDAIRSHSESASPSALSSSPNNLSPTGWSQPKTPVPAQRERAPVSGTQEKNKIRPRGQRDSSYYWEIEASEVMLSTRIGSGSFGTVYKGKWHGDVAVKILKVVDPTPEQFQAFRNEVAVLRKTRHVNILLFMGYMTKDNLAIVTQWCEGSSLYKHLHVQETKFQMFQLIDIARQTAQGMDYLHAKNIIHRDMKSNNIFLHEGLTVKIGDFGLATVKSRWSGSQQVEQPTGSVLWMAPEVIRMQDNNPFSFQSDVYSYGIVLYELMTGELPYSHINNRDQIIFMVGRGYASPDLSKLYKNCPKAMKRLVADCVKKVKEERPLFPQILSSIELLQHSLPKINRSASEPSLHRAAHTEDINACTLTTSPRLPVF
Protocol: as §1, §2, §3, §4, §5

Lck kinase (h) = Lck kinase (h) (Homo sapiens, UniProt P06239); experiment: Kinase inhibitory assay (panel); assay type: biochemical; conditions: read-out: % inhibition at 10 µM
Protocol: as §1, §2, §3, §4, §5

IRK (h) (InsR) = IRK (h) (InsR) (Homo sapiens, UniProt P06213); experiment: Kinase inhibitory assay (panel); assay type: biochemical; conditions: read-out: % inhibition at 10 µM
Chain of IRK (h) (InsR) (P06213 28-1382): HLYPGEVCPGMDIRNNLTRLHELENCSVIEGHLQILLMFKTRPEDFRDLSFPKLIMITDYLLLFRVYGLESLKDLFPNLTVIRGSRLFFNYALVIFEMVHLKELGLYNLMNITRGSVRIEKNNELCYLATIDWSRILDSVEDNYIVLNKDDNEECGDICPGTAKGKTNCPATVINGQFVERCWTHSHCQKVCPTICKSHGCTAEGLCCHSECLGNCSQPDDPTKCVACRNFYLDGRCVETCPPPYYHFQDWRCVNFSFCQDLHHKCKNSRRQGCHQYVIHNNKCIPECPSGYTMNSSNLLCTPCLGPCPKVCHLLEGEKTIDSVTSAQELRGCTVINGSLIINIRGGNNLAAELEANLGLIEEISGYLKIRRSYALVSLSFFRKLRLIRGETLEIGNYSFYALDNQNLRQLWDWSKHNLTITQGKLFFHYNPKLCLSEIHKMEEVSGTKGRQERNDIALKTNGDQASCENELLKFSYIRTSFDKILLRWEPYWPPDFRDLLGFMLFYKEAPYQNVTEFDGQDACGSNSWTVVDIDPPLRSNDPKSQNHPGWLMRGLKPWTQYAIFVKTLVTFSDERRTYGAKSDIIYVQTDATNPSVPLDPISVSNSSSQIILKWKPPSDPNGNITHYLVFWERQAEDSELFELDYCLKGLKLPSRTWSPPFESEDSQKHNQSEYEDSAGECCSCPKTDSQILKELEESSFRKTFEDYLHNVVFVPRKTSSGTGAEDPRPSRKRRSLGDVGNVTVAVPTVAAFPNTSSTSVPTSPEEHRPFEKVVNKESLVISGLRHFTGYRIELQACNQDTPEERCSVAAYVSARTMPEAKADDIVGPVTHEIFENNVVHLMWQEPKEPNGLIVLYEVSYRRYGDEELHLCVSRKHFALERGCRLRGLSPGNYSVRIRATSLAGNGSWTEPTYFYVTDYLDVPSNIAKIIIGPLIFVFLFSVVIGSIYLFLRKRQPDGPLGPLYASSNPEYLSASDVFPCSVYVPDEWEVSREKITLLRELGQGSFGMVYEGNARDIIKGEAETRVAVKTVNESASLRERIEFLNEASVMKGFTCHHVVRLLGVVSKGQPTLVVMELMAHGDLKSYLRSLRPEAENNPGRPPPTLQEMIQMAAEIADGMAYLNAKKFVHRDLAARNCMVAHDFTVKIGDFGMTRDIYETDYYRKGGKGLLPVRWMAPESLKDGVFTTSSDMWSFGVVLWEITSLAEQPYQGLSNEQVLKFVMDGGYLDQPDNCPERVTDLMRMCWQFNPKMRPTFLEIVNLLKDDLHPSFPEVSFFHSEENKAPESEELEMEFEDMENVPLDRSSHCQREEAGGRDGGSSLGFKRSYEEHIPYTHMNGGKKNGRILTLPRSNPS
Protocol: as §1, §2, §3, §4, §5

EphA2 kinase (h) = EphA2 kinase (h) (Homo sapiens, UniProt P29317); experiment: Kinase inhibitory assay (panel); assay type: biochemical; conditions: read-out: % inhibition at 10 µM
Protocol: as §1, §2, §3, §4, §5

GSK3beta (h) = GSK3beta (h) (Homo sapiens, UniProt P49841); experiment: Kinase inhibitory assay (panel); assay type: biochemical; conditions: read-out: % inhibition at 10 µM
Protocol: as §1, §2, §3, §4, §5

Src kinase (h) = Src kinase (h) (Homo sapiens, UniProt P12931); experiment: Kinase inhibitory assay (panel); assay type: biochemical; conditions: read-out: % inhibition at 10 µM
Chain of Src kinase (h) (P12931 whole entry): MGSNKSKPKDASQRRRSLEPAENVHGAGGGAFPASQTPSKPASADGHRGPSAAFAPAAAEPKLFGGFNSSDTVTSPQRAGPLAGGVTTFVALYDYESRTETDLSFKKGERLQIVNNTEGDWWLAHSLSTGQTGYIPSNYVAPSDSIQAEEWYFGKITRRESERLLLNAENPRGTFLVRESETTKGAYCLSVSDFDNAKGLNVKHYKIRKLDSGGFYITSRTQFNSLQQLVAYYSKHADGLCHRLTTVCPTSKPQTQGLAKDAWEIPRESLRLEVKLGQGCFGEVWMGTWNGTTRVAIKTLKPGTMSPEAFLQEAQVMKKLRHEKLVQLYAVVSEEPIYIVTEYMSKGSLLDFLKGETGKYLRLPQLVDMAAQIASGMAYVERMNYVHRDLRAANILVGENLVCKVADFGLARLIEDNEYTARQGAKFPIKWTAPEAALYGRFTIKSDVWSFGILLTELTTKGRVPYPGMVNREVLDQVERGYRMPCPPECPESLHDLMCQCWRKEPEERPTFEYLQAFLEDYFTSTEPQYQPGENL
Protocol: as §1, §2, §3, §4, §5

TRKA (h) = TRKA (h) (Homo sapiens, UniProt P04629); experiment: Kinase inhibitory assay (panel); assay type: biochemical; conditions: read-out: % inhibition at 10 µM
Chain of TRKA (h) (P04629 33-796): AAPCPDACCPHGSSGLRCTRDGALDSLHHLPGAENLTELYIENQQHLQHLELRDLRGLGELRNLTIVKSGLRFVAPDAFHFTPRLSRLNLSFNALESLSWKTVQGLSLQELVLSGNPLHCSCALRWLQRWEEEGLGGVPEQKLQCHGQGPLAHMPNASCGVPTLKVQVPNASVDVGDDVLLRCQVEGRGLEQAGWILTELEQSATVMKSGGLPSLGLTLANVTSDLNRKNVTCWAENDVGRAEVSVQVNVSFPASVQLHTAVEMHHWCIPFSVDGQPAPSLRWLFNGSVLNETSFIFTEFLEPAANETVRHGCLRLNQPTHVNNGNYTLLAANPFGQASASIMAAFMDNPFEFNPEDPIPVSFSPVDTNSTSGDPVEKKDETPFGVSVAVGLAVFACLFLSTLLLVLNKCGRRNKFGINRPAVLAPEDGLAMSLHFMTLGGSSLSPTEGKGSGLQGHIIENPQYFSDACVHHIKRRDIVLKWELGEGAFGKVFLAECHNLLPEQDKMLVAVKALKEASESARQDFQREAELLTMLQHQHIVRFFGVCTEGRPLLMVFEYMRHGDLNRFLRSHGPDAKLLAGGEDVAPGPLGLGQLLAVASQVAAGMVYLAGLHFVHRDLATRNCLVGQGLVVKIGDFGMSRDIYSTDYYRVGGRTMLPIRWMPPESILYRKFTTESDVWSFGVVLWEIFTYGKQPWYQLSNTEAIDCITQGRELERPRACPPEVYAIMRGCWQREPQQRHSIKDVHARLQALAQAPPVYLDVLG
Protocol: as §1, §2, §3, §4, §5

IKKalpha (h) = IKKalpha (h) (Homo sapiens, UniProt O15111); experiment: Kinase inhibitory assay (panel); assay type: biochemical; conditions: read-out: % inhibition at 10 µM
Chain of IKKalpha (h) (O15111 whole entry): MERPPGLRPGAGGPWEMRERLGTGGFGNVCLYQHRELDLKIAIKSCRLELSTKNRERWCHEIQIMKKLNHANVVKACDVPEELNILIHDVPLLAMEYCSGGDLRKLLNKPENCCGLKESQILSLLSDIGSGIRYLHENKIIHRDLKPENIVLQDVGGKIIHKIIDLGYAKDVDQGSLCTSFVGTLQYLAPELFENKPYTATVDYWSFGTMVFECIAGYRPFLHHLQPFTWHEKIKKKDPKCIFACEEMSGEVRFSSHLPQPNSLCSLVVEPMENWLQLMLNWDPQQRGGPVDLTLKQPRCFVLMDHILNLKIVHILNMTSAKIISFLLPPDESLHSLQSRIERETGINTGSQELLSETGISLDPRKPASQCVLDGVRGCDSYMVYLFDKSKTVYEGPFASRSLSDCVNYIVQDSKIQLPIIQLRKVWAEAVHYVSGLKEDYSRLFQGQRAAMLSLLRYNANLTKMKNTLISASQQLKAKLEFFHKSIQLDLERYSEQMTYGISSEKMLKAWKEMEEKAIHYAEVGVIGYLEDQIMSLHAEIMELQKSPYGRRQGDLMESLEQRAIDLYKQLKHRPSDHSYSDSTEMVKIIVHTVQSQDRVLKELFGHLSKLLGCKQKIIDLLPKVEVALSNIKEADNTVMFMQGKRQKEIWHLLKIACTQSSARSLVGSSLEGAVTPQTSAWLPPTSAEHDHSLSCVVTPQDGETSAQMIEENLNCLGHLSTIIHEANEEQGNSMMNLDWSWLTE
Protocol: as §1, §2, §3, §4, §5

AurA/Aur2 kinase (h) = AurA/Aur2 kinase (h) (Homo sapiens, UniProt O14965); experiment: Kinase inhibitory assay (panel); assay type: biochemical; conditions: read-out: % inhibition at 10 µM
Protocol: as §1, §2, §3, §4, §5

[1] = test system: peripheral blood B lymphocyte AHH1 cells; experiment: Differential toxicity, antiproliferative assay; assay type: cell-based; conditions: Homo sapiens, AHH-1; 48 h treatment; read-out: IC50 against AHH1 cells
Protocol: U937 histiocytic lymphoma, HL60 acute promyelocytic leukemia, H1299 lung adenocarcinoma, MCF7 breast carcinoma, HT1080 fibrosarcoma, M14 melanoma, HeLa epithelial cervix carcinoma and peripheral blood B lymphocyte AHH1 human cell lines were obtained from the Deutsche Sammlung für Mikroorganismen and Zellkulturen (DSZM, Braunschweig, Germany) and were maintained in RPMI 1640 medium contained 10% fetal bovine serum (FBS), 2 mM L-glutamine, and antibiotics in a humidified atmosphere with 5% CO2 at 37 °C. […]
Then, increasing concentrations of different compounds (ranging from 0.01 to 100 μM) were added, and cell proliferation was evaluated by a MTT assay after 48 h. […] The effect of compounds was evaluated using the CellTiter-Glo luminescent cell viability assay (Promega, Madison, WI, USA) according to the manufacturer’s instructions. […] After treatments, MTT solution was added for 3 h at 0.5 mg/mL, the obtained crystals were dissolved in DMSO (Sigma-Aldrich, Milan, Italy), and the absorbance was read at a wavelength of 570 nm with reader TECAN M-200. […]
IC50 values of compounds against cellular viability were determined by using nonlinear regression fitting curves with GraphPad Prism 8. […]

O=C(Nc1ccc(Nc2ccnc3ccccc23)cc1)c1cccc(Nc2ccnc3ccccc23)c1 [Compound 2a]
EC50 (human DNMT1 (hDNMT1)): 23 ± 4 µM
inhibition at 10 µM (SIK (h)): 22%
inhibition at 10 µM (NEK2 (h)): -72%
inhibition at 10 µM (CHK2 (h)): -195%
inhibition at 10 µM (CHK1 (h)): 16%
inhibition at 10 µM (PAK4 (h)): -17%
inhibition at 10 µM (ERK2 (h) (P42mapk)): 9%
inhibition at 10 µM (JAK3 (h)): -100%
inhibition at 10 µM (PKCbeta 2 (h)): 79%
inhibition at 10 µM (RAF-1 kinase (h)): 79%
inhibition at 10 µM (Lck kinase (h)): 23%
inhibition at 10 µM (IRK (h) (InsR)): 86%
inhibition at 10 µM (EphA2 kinase (h)): -184%
inhibition at 10 µM (GSK3beta (h)): -72%
inhibition at 10 µM (Src kinase (h)): 94%
inhibition at 10 µM (TRKA (h)): 98%
inhibition at 10 µM (IKKalpha (h)): 70%
inhibition at 10 µM (AurA/Aur2 kinase (h)): -20%

O=C(Nc1cccc(Nc2ccnc3ccccc23)c1)c1cccc(Nc2ccnc3ccccc23)c1 [Compound 2b]
IC50 [1]: 3.3 µM
inhibition at 10 µM (PKCbeta 2 (h)): 79%
inhibition at 10 µM (RAF-1 kinase (h)): 79%
inhibition at 10 µM (IRK (h) (InsR)): 86%
inhibition at 10 µM (Src kinase (h)): 94%
inhibition at 10 µM (TRKA (h)): 98%
inhibition at 10 µM (IKKalpha (h)): 70%

O=C(Nc1cccc(Nc2ccnc3ccccc23)c1)c1ccc(Nc2ccnc3ccccc23)cc1 [Compound 2c]
EC50 (human DNMT1 (hDNMT1)): 22 ± 3 µM

O=C(Nc1cccc(NC(=O)c2ccc(Nc3ccnc4ccccc34)cc2)c1)OCc1ccccc1 [Compound 4c]
IC50 [1]: 9.6 µM
